Data reported in ChEMBL document CHEMBL3784965, “Discovery of (R)-6-(1-(8-Fluoro-6-(1-methyl-1H-pyrazol-4-yl)-[1,2,4]triazolo[4,3-a]pyridin-3-yl)ethyl)-3-(2-methoxyethoxy)-1,6-naphthyridin-5(6H)-one (AMG 337), a Potent and Selective Inhibitor of MET with High Unbound Target Coverage and Robust In Vivo Antitumor Activity” (J Med Chem, 2016).
In brackets after ≈: the same amount, converted by molar mass.

Key:
Rattus norvegicus = organism: Rattus norvegicus; experiment: Unbound clearance in Sprague-Dawley rat at 5 ug/ml by equilibrium dialysis method; type: ADME, organism-based; settings: in vivo
Mus musculus [1] = experiment: In vivo inhibition of HGF-induced phosphorylation of MET in Balb/c mouse liver assessed as time required for >90% inhibition at 30 mg/kg administered via oral gavage; type: functional
[2] = Solubility of compound in 0.01 N HCl; type: physicochemical
Plasma [3] = experiment: Unbound plasma concentration in Balb/c mouse at 30 mg/kg, administered via oral gavage measured at 6 hrs; type: ADME, organism-based; settings: in vivo
[4] = Solubility of compound in PBS; type: physicochemical
[5] = molecular target: Hepatocyte growth factor receptor (Homo sapiens, UniProt P08581)
Description: Inhibition of HGF-mediated MET autophosphorylation in human PC3 cells preincubated for 1 hr followed by stimulation with human HGF measured after 10 mins by electrochemiluminescence immunoassay

[6] = Clearance in Sprague-Dawley rat at 0.3 mg/kg, iv; type: ADME, organism-based; settings: in vivo
[7] = Half life in Sprague-Dawley rat; type: ADME, organism-based; settings: in vivo
[8] = Solubility of compound in SIF; type: physicochemical
[9] = Clearance in Sprague-Dawley rat at 0.25 mg/kg, iv; type: ADME, organism-based; settings: in vivo
CYP3A4 = CYP3A4 (Homo sapiens, UniProt P08684); experiment: (§1) Inhibition of CYP3A4 (unknown origin) in presence of NADPH; type: ADME
[10] = Fraction unbound in mouse plasma at 5 ug/ml by equilibrium dialysis method; type: ADME, cell-free
[11] = Fraction unbound in Sprague-Dawley rat plasma at 5 ug/ml by equilibrium dialysis method; type: ADME, cell-free
Mus musculus [12] = experiment: In vivo inhibition of HGF-induced phosphorylation of MET in Balb/c mouse liver assessed as phosphorylated cMET level at 10 mg/kg administered via oral gavage followed by HGF injection 12 hrs post dose by electrochemiluminescence immunoassay relative to control; type: functional; set-up: scale not given: the % may be the effect or the level left
[13] = Intrinsic clearance in human liver microsomes; type: ADME; settings: read-out: CLH
[14] = Volume of distribution at steady state in Sprague-Dawley rat; type: ADME, organism-based; settings: in vivo, read-out: Vdss
Cytochrome P450 3A4 [15] = molecular target: T1, Cytochrome P450 3A4 (Homo sapiens, UniProt P08684); experiment: as §1; type: ADME
Mus musculus [16] = experiment: In vivo inhibition of HGF-induced phosphorylation of MET in Balb/c mouse liver assessed as phosphorylated cMET level at 10 mg/kg administered via oral gavage followed by HGF injection 1 hr post dose by electrochemiluminescence immunoassay relative to control; type: functional; set-up: scale not given: the % may be the effect or the level left
Plasma [17] = experiment: Unbound plasma concentration in mouse at 10 mg/kg, po measured at 9 hrs; type: ADME, organism-based; settings: in vivo
[18] = Fraction unbound in human plasma at 5 ug/ml by equilibrium dialysis method; type: ADME, cell-free
Mus musculus [19] = experiment: In vivo inhibition of HGF-induced phosphorylation of MET in Balb/c mouse liver assessed as phosphorylated cMET level at 10 mg/kg administered via oral gavage followed by HGF injection 9 hrs post dose by electrochemiluminescence immunoassay relative to control; type: functional; set-up: scale not given: the % may be the effect or the level left
Cytochrome P450 3A4 [20] = molecular target: T1, Cytochrome P450 3A4; experiment: Inhibition of CYP3A4 (unknown origin) in absence of NADPH; type: ADME
Mus musculus [21] = experiment: In vivo inhibition of HGF-induced phosphorylation of MET in Balb/c mouse liver assessed as phosphorylated cMET level at 10 mg/kg administered via oral gavage followed by HGF injection 6 hrs post dose by electrochemiluminescence immunoassay relative to control; type: functional; set-up: scale not given: the % may be the effect or the level left
[22] = Intrinsic clearance in rat liver microsomes; type: ADME; settings: read-out: CLH
[23] = Oral bioavailability in Sprague-Dawley rat at 2 mg/kg; type: ADME, organism-based; settings: in vivo
Mus musculus [24] = experiment: In vivo inhibition of HGF-induced phosphorylation of MET in Balb/c mouse liver assessed as phosphorylated cMET level at 10 mg/kg administered via oral gavage followed by HGF injection 3 hrs post dose by electrochemiluminescence immunoassay relative to control; type: functional; set-up: scale not given: the % may be the effect or the level left
[25] = Intrinsic clearance in mouse liver microsomes; type: ADME; settings: read-out: CLH
Mus musculus [26] = experiment: In vivo inhibition of HGF-induced phosphorylation of MET in Balb/c mouse liver assessed as phosphorylated cMET level at 10 mg/kg administered via oral gavage followed by HGF injection 24 hrs post dose by electrochemiluminescence immunoassay relative to control; type: functional; set-up: scale not given: the % may be the effect or the level left
Plasma [27] = experiment: Unbound plasma concentration in Balb/c mouse at 10 mg/kg, administered via oral gavage measured at 12 hrs; type: ADME, organism-based; settings: in vivo
Mus musculus [28] = experiment: In vivo inhibition of HGF-induced phosphorylation of MET in Balb/c mouse liver assessed as time required for >90% inhibition at 10 mg/kg administered via oral gavage; type: functional
[29] = Clearance in Beagle dog at 0.713 mg/kg, iv; type: ADME, organism-based, Canis lupus familiaris; settings: in vivo
Mus musculus [30] = experiment: Toxicity in CD1 mouse xenografted with mouse NIH-3T3/TPR-Met cells assessed as effect on body weight at 0.1 to 10 mg/kg, qd administered as oral gavage over 22 days; type: organism-based; settings: in vivo, 528 h
[31] = AUC(0 to infinity) in Beagle dog at 30 mg/kg, po; type: ADME, organism-based, Canis lupus familiaris; set-up: dose 30 mg/kg, time infinity, route oral; settings: in vivo
[32] = Oral bioavailability in Beagle dog at 30 mg/kg; type: ADME, organism-based, Canis lupus familiaris; settings: in vivo
Canis familiaris = organism: Canis familiaris; experiment: Unbound clearance in Beagle dog at 5 ug/ml by equilibrium dialysis method; type: ADME, organism-based, Canis lupus familiaris; settings: in vivo
[33] = Half life in iv dosed Beagle dog; type: ADME, organism-based, Canis lupus familiaris; settings: in vivo
[34] = Oral bioavailability in Beagle dog at 10 mg/kg; type: ADME, organism-based, Canis lupus familiaris; settings: in vivo
[35] = (§2) Antitumor activity against mouse NIH-3T3/TPR-Met cells xenografted in CD1 mouse assessed as tumor growth inhibition administered as oral gavage, qd over 22 days; type: functional; settings: NIH3T3, po, 528 h
Mus musculus [36] = experiment: as §2; type: functional
[37] = Volume of distribution at steady state in iv dosed Beagle dog; type: ADME, organism-based, Canis lupus familiaris; settings: in vivo, read-out: Vdss
[38] = AUC(0 to infinity) in Beagle dog at 10 mg/kg,po; type: ADME, organism-based, Canis lupus familiaris; set-up: dose 10 mg/kg, route oral, time infinity; settings: in vivo
Plasma [39] = experiment: Unbound plasma concentration in Balb/c mouse at 10 mg/kg, administered via oral gavage measured at 6 hrs; type: ADME, organism-based; settings: in vivo
[40] = Clearance in Beagle dog at 0.425 mg/kg, iv; type: ADME, organism-based, Canis lupus familiaris; settings: in vivo

Compound	CL free (Rattus norvegicus)	solubility [4]	half-life [7]	clearance [9]	fraction unbound at 5 ug/ml [10]	fraction unbound at 5 ug/ml [11]	Activity (Mus musculus [12])	microsomal CLint [13]	Vd [14]	Activity (Mus musculus [16])	fraction unbound at 5 ug/ml [18]	Activity (Mus musculus [19])	Activity (Mus musculus [21])	microsomal CLint [22]	bioavailability [23]	Activity (Mus musculus [24])	microsomal CLint [25]	Activity (Mus musculus [26])	also measured
COc1ccc2c(OCc3nnc4ccc(-c5cc(F)c(F)c(F)c5)nn34)ccnc2c1	967 mL/min/kg	4 µg/mL (≈ 9.15 µM)	3.5 h	–	–	–	–	–	–	–	–	–	–	–	–	–	–	–	Time (Mus musculus [1]): 6 h; solubility [2]: 85 µg/mL (≈ 194 µM); Cp(f) (Plasma [3]): 34 nM; IC50 [5]: 0.008 µM; clearance [6]: 1 mL/min/kg; solubility [8]: 17 µg/mL (≈ 38.9 µM)
COc1cnc2c(NCc3nnc4ccc(-c5cc(C)ns5)nn34)ccnc2c1	433 mL/min/kg	3 µg/mL (≈ 7.42 µM)	1.8 h	3.17 mL/min/kg	–	–	–	–	–	–	–	–	–	–	–	–	–	–	Time (Mus musculus [1]): 6 h; solubility [2]: > 200 µg/mL; Cp(f) (Plasma [3]): 9 nM; IC50 (CYP3A4): > 50 µM; solubility [8]: 13 µg/mL (≈ 32.1 µM)
Cc1cc(-c2cc(F)c3nnc([C@@H](C)n4ccc5ncccc5c4=O)n3c2)on1	31.7 mL/min/kg	–	0.8 h	6.33 mL/min/kg	0.245	0.196	40%	14 µL/min/mg	0.4 L/kg	100%	0.32	91%	98%	8 µL/min/mg	44%	101%	< 5 µL/min/mg	12%	TDI (Cytochrome P450 3A4 [15]; human): Not Active; Cp(f) (Plasma [17]): 193 nM; TDI (Cytochrome P450 3A4 [20]; human): Not Active
COCCOc1cnc2ccc([C@H](C)n3nnc4ccn(-c5cc(C)ns5)c(=O)c43)cc2c1	517 mL/min/kg	9 µg/mL (≈ 19.5 µM)	3.4 h	–	–	–	–	–	–	–	–	–	–	–	–	–	–	–	Cp(f) (Plasma [27]): 20 nM; IC50 (Cytochrome P450 3A4 [15]): 21 µM; Time (Mus musculus [28]): 12 h; IC50 (Cytochrome P450 3A4 [20]): 21 µM
COCCOc1cnc2ccn([C@H](C)c3nnc4c(F)cc(-c5cnn(C)c5)cn34)c(=O)c2c1 [AMG-337]	26.7 mL/min/kg	–	3 h	4.5 mL/min/kg	0.366	0.174	92%	9 µL/min/mg	0.9 L/kg	101%	0.419	92%	98%	6 µL/min/mg	30%	98%	8 µL/min/mg	51%	clearance [29]: 3.83 mL/min/kg; Activity (Mus musculus [30]): Non-toxic; AUC(0-inf) [31]: 82600 ng·h/mL; bioavailability [32]: 64%; CL free (Canis familiaris): 7.67 mL/min/kg; half-life [33]: 5.9 h; bioavailability [34]: 49%; ED50 [35]: 0.3 mg/kg; ED90 [35]: 0.8 mg/kg; Activity (Mus musculus [36]): Dose-dependent effect; Vd [37]: 1.1 L/kg; AUC(0-inf) [38]: 21000 ng·h/mL
COCCOc1cnc2ccn([C@H](C)c3nnc4c(F)cc(-c5cc(C)no5)cn34)c(=O)c2c1	40 mL/min/kg	–	2.9 h	3.33 mL/min/kg	0.317	0.08	51%	20 µL/min/mg	0.7 L/kg	101%	0.409	99%	99%	16 µL/min/mg	54%	100%	14 µL/min/mg	28%	–
COCCOc1cnc2ccn([C@H](C)c3nnc4ccc(-c5cnn(C)c5)cn34)c(=O)c2c1	40 mL/min/kg	–	1.8 h	11.7 mL/min/kg	0.424	0.296	–	8 µL/min/mg	1.3 L/kg	–	0.498	–	–	< 5 µL/min/mg	25%	–	7 µL/min/mg	–	–
COc1cnc2ccn([C@H](C)c3nnc4c(F)cc(-c5cnn(C)c5)cn34)c(=O)c2c1	15 mL/min/kg	–	3.6 h	2 mL/min/kg	0.353	0.139	–	< 5 µL/min/mg	0.5 L/kg	–	0.309	–	–	12 µL/min/mg	43%	–	7 µL/min/mg	–	–
COc1cnc2ccn([C@H](C)c3nnc4c(F)cc(-c5cc(C)no5)cn34)c(=O)c2c1	–	–	1.1 h	7.67 mL/min/kg	–	–	–	–	0.5 L/kg	–	–	–	–	–	31%	–	–	–	–
C[C@H](c1nnc2c(F)cc(-c3cnn(C)c3)cn12)n1ccc2ncccc2c1=O	17 mL/min/kg	–	4 h	4.67 mL/min/kg	0.376	0.271	–	< 5 µL/min/mg	0.7 L/kg	–	0.478	–	–	8 µL/min/mg	31%	–	< 5 µL/min/mg	–	–
COCCOc1cnc2ccc([C@H](C)c3nnc4c(F)cc(-c5cc(C)no5)cn34)cc2c1	433 mL/min/kg	52 µg/mL (≈ 116 µM)	4.2 h	–	–	–	–	–	–	–	–	–	–	–	–	–	–	–	solubility [2]: > 200 µg/mL; IC50 (Cytochrome P450 3A4 [15]): > 50 µM; Time (Mus musculus [28]): 6 h; IC50 (Cytochrome P450 3A4 [20]): > 50 µM; Cp(f) (Plasma [39]): 141 nM; solubility [8]: 126 µg/mL (≈ 282 µM)
COCCOc1cnc2ccn([C@H](C)c3nnc4ccc(-c5cc(C)no5)cn34)c(=O)c2c1	25 mL/min/kg	–	2.4 h	4.83 mL/min/kg	0.435	0.19	95%	7 µL/min/mg	1 L/kg	109%	0.338	108%	108%	9 µL/min/mg	59%	109%	23 µL/min/mg	50%	AUC(0-inf) [31]: 94100 ng·h/mL; bioavailability [32]: 87%; CL free (Canis familiaris): 11.3 mL/min/kg; clearance [40]: 5 mL/min/kg; half-life [33]: 4.3 h; bioavailability [34]: 53%; Vd [37]: 1.4 L/kg; AUC(0-inf) [38]: 19300 ng·h/mL
COc1cnc2ccn([C@H](C)c3nnc4ccc(-c5cnn(C)c5)cn34)c(=O)c2c1	53.3 mL/min/kg	–	1.7 h	10.8 mL/min/kg	0.409	0.206	–	< 5 µL/min/mg	1.2 L/kg	–	0.286	–	–	9 µL/min/mg	36%	–	7 µL/min/mg	–	–
